Measurements taken from the NIST ThermoML archive (doi:10.1021/acs.jced.8b00387).

Assay: xn = mol fraction of the nth substance listed
Conditions: for viscosity / mass density / speed of sound: 102 kPa, Liquid; for viscosity: Concentric cylinders viscometry; for mass density: Vibrating tube method; for speed of sound: Frequency=3 MHz, Single path-length method; for surface tension liquid-gas: 295 K, Pendant drop shape

CC(CC(C)(C)C)CC(C)(C)CC(C)(C)C (stereo not given) [2,2,4,4,6,8,8-heptamethylnonane] + CCCCCCc1ccccc1
Conditions | mass density [kg/m3] | speed of sound [m/s] | viscosity [mPa·s]
253.15 K, x2 = 0.1015 | 816.6 | – | 11.82
253.15 K, x2 = 0.2005 | 822.2 | – | 10.18
253.15 K, x2 = 0.2999 | 828 | – | 9.04
253.15 K, x2 = 0.4001 | 834.5 | – | 7.96
253.15 K, x2 = 0.4996 | 841.5 | – | 7.08
253.15 K, x2 = 0.6 | 849.4 | – | 6.37
253.15 K, x2 = 0.6999 | 857.7 | – | 5.78
253.15 K, x2 = 0.8 | 867.1 | – | 5.3
253.15 K, x2 = 0.9 | 877.1 | – | 4.94
288.15 K, x2 = 0.1015 | 792.77 | 1311.3 | –
288.15 K, x2 = 0.2005 | 798.05 | 1317.6 | –
288.15 K, x2 = 0.2999 | 803.73 | 1324.6 | –
288.15 K, x2 = 0.4001 | 810.02 | 1332 | –
288.15 K, x2 = 0.4996 | 816.74 | 1340.4 | –
288.15 K, x2 = 0.6 | 824.16 | 1349.4 | –
288.15 K, x2 = 0.6999 | 832.36 | 1359.3 | –
288.15 K, x2 = 0.8 | 841.37 | 1370 | –
288.15 K, x2 = 0.9 | 851.27 | 1382.2 | –
293.15 K, x2 = 0.1015 | 789.39 | 1292.1 | 3.37
293.15 K, x2 = 0.2005 | 794.63 | 1298.5 | 3.04
293.15 K, x2 = 0.2999 | 800.29 | 1305.4 | 2.75
293.15 K, x2 = 0.4001 | 806.56 | 1313 | 2.51
293.15 K, x2 = 0.4996 | 813.23 | 1321.1 | 2.3
293.15 K, x2 = 0.6 | 820.65 | 1330.2 | 2.12
293.15 K, x2 = 0.6999 | 828.75 | 1340.1 | 1.98
293.15 K, x2 = 0.8 | 837.7 | 1350.9 | 1.85
293.15 K, x2 = 0.9 | 847.55 | 1363 | 1.74
303.15 K, x2 = 0.1015 | 782.63 | 1254.4 | 2.68
303.15 K, x2 = 0.2005 | 787.8 | 1261.2 | 2.44
303.15 K, x2 = 0.2999 | 793.41 | 1267.7 | 2.23
303.15 K, x2 = 0.4001 | 799.59 | 1275.6 | 2.05
303.15 K, x2 = 0.4996 | 806.19 | 1283.4 | 1.89
303.15 K, x2 = 0.6 | 813.53 | 1292.4 | 1.78
303.15 K, x2 = 0.6999 | 821.53 | 1302.3 | 1.66
303.15 K, x2 = 0.8 | 830.36 | 1313.5 | 1.56
303.15 K, x2 = 0.9 | 840.1 | 1325.2 | 1.48
313.15 K, x2 = 0.1015 | 775.87 | 1217.8 | 2.19
313.15 K, x2 = 0.2005 | 780.97 | 1224.6 | 2
313.15 K, x2 = 0.2999 | 786.51 | 1231 | 1.84
313.15 K, x2 = 0.4001 | 792.62 | 1238.9 | 1.7
313.15 K, x2 = 0.4996 | 799.14 | 1246.6 | 1.58
313.15 K, x2 = 0.6 | 806.39 | 1255.5 | 1.49
313.15 K, x2 = 0.6999 | 814.29 | 1265.4 | 1.4
313.15 K, x2 = 0.8 | 823.01 | 1276.7 | 1.32
313.15 K, x2 = 0.9 | 832.64 | 1288.3 | 1.25
323.15 K, x2 = 0.1015 | 769.09 | 1181.9 | 1.82
323.15 K, x2 = 0.2005 | 774.12 | 1188.7 | 1.67
323.15 K, x2 = 0.2999 | 779.61 | 1195.1 | 1.55
323.15 K, x2 = 0.4001 | 785.63 | 1203 | 1.44
323.15 K, x2 = 0.4996 | 792.08 | 1210.5 | 1.37
323.15 K, x2 = 0.6 | 799.24 | 1219.5 | 1.28
323.15 K, x2 = 0.6999 | 807.04 | 1229.4 | 1.2
323.15 K, x2 = 0.8 | 815.65 | 1240.5 | 1.14
323.15 K, x2 = 0.9 | 825.16 | 1252 | 1.09
333.15 K, x2 = 0.1015 | 762.29 | 1147.1 | 1.53
333.15 K, x2 = 0.2005 | 767.25 | 1153.6 | 1.42
333.15 K, x2 = 0.2999 | 772.68 | 1160.3 | 1.32
333.15 K, x2 = 0.4001 | 778.62 | 1167.9 | 1.23
333.15 K, x2 = 0.4996 | 784.99 | 1175.5 | 1.18
333.15 K, x2 = 0.6 | 792.06 | 1184.4 | 1.11
333.15 K, x2 = 0.6999 | 799.77 | 1194.3 | 1.04
333.15 K, x2 = 0.8 | 808.26 | 1205.1 | 0.99
333.15 K, x2 = 0.9 | 817.65 | 1216.8 | 0.945

Conditions | surface tension liquid-gas [mN/m]
x2 = 0.1015 | 24.4
x2 = 0.2005 | 24.5
x2 = 0.2999 | 24.7
x2 = 0.4001 | 25.3
x2 = 0.4996 | 25.6
x2 = 0.6 | 25.8
x2 = 0.6999 | 26.5
x2 = 0.8 | 27.2
x2 = 0.9 | 27.9

CC(CC(C)(C)C)CC(C)(C)CC(C)(C)C (stereo not given) [2,2,4,4,6,8,8-heptamethylnonane] + CCCCc1ccccc1
Conditions | mass density [kg/m3] | speed of sound [m/s] | viscosity [mPa·s]
253.15 K, x2 = 0.1007 | 815.9 | – | 11.06
253.15 K, x2 = 0.2007 | 820.7 | – | 8.94
253.15 K, x2 = 0.3 | 826.1 | – | 7.29
253.15 K, x2 = 0.3999 | 832.1 | – | 5.97
253.15 K, x2 = 0.4998 | 838.8 | – | 4.93
253.15 K, x2 = 0.5997 | 846.5 | – | 4.12
253.15 K, x2 = 0.7001 | 855.7 | – | 3.46
253.15 K, x2 = 0.7998 | 865.8 | – | 2.96
253.15 K, x2 = 0.8992 | 878.5 | – | 2.59
288.15 K, x2 = 0.1007 | 791.93 | 1308.2 | –
288.15 K, x2 = 0.2007 | 796.54 | 1311.6 | –
288.15 K, x2 = 0.3 | 801.59 | 1315.6 | –
288.15 K, x2 = 0.3999 | 807.31 | 1320.4 | –
288.15 K, x2 = 0.4998 | 813.73 | 1325.5 | –
288.15 K, x2 = 0.5997 | 820.89 | 1331.9 | –
288.15 K, x2 = 0.7001 | 829.45 | 1339.5 | –
288.15 K, x2 = 0.7998 | 839.17 | 1348.9 | –
288.15 K, x2 = 0.8992 | 850.51 | 1359.8 | –
293.15 K, x2 = 0.1007 | 788.54 | 1289.3 | 3.22
293.15 K, x2 = 0.2007 | 793.11 | 1292.7 | 2.77
293.15 K, x2 = 0.3 | 798.11 | 1296.6 | 2.41
293.15 K, x2 = 0.3999 | 803.78 | 1301.1 | 2.09
293.15 K, x2 = 0.4998 | 810.17 | 1306.3 | 1.83
293.15 K, x2 = 0.5997 | 817.24 | 1312.5 | 1.6
293.15 K, x2 = 0.7001 | 825.74 | 1320.1 | 1.41
293.15 K, x2 = 0.7998 | 835.37 | 1329.1 | 1.29
293.15 K, x2 = 0.8992 | 846.62 | 1340 | 1.15
303.15 K, x2 = 0.1007 | 781.75 | 1251.9 | 2.58
303.15 K, x2 = 0.2007 | 786.24 | 1255.2 | 2.25
303.15 K, x2 = 0.3 | 791.16 | 1258.9 | 1.97
303.15 K, x2 = 0.3999 | 796.72 | 1263.3 | 1.73
303.15 K, x2 = 0.4998 | 803 | 1268.3 | 1.55
303.15 K, x2 = 0.5997 | 809.95 | 1274.4 | 1.37
303.15 K, x2 = 0.7001 | 818.29 | 1281.9 | 1.21
303.15 K, x2 = 0.7998 | 827.77 | 1290.3 | 1.1
303.15 K, x2 = 0.8992 | 838.82 | 1300.9 | 0.993
313.15 K, x2 = 0.1007 | 774.96 | 1215.2 | 2.11
313.15 K, x2 = 0.2007 | 779.36 | 1218.4 | 1.86
313.15 K, x2 = 0.3 | 784.19 | 1222 | 1.64
313.15 K, x2 = 0.3999 | 789.65 | 1226.2 | 1.46
313.15 K, x2 = 0.4998 | 795.81 | 1231.1 | 1.3
313.15 K, x2 = 0.5997 | 802.64 | 1237 | 1.16
313.15 K, x2 = 0.7001 | 810.83 | 1244.2 | 1.03
313.15 K, x2 = 0.7998 | 820.15 | 1252.3 | 0.957
313.15 K, x2 = 0.8992 | 831.01 | 1262.7 | 0.855
323.15 K, x2 = 0.1007 | 768.15 | 1179.3 | 1.76
323.15 K, x2 = 0.2007 | 772.47 | 1182.3 | 1.56
323.15 K, x2 = 0.3 | 777.21 | 1185.8 | 1.39
323.15 K, x2 = 0.3999 | 782.56 | 1189.8 | 1.27
323.15 K, x2 = 0.4998 | 788.61 | 1194.5 | 1.14
323.15 K, x2 = 0.5997 | 795.31 | 1200.2 | 1.03
323.15 K, x2 = 0.7001 | 803.34 | 1207.2 | 0.92
323.15 K, x2 = 0.7998 | 812.49 | 1215.1 | 0.831
323.15 K, x2 = 0.8992 | 823.15 | 1225.2 | 0.754
333.15 K, x2 = 0.1007 | 761.33 | 1144.1 | 1.49
333.15 K, x2 = 0.2007 | 765.57 | 1147 | 1.33
333.15 K, x2 = 0.3 | 770.2 | 1150.3 | 1.2
333.15 K, x2 = 0.3999 | 775.45 | 1154.1 | 1.1
333.15 K, x2 = 0.4998 | 781.38 | 1158.8 | 1
333.15 K, x2 = 0.5997 | 787.95 | 1164.2 | 0.9
333.15 K, x2 = 0.7001 | 795.82 | 1170.9 | 0.812
333.15 K, x2 = 0.7998 | 804.8 | 1178.9 | 0.736
333.15 K, x2 = 0.8992 | 815.26 | 1188.7 | 0.67

Conditions | surface tension liquid-gas [mN/m]
x2 = 0.1007 | 24.3
x2 = 0.2007 | 24.6
x2 = 0.3 | 24.8
x2 = 0.3999 | 25.1
x2 = 0.4998 | 25.5
x2 = 0.5997 | 26
x2 = 0.7001 | 26.2
x2 = 0.7998 | 26.7
x2 = 0.8992 | 27.3
